Assay results published in ChEMBL document CHEMBL1124726, “Novel [(diazomethyl)carbonyl]-1,2,3,4-tetrahydronaphthalene derivatives as potential photoaffinity ligands for the 5-HT1A receptor” (J Med Chem, 1990).
pIC50: −log10 of the molar value.

How the values were obtained:
[1] = target: T1, 5-hydroxytryptamine receptor 1A (Rattus norvegicus, UniProt P19327); experiment: Binding affinity to 5-hydroxytryptamine 1A receptor in rat cortex using [3H]-8-OH- DPAT as radioligand
T1 sequence (P19327 whole entry): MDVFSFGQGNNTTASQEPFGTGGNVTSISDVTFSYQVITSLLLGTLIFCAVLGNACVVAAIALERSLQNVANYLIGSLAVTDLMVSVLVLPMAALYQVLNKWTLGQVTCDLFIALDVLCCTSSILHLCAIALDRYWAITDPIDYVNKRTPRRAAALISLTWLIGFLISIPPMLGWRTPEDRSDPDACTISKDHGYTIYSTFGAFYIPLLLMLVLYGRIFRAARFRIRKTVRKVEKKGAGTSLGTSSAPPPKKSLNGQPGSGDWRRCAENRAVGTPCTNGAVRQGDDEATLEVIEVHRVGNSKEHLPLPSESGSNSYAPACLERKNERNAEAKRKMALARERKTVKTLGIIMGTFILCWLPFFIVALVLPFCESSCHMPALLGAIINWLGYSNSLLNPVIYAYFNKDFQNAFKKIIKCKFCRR

[2] = target: T1, 5-hydroxytryptamine receptor 1A; experiment: Binding affinity to 5-hydroxytryptamine 1A receptor in rat hippocampus using [3H]-8-OH- DPAT as radioligand; assay type: tissue-based

Compound | pIC50 [1] | pIC50 [2]
CCCN(CCC)C1CCc2cccc(OCC(=O)C=[N+]=[N-])c2C1 (configuration not stated) | 7.14 | 7.11
CCCN(CCC)C1CCc2cccc(C(=O)OC)c2C1 (configuration not stated) | 8.27 | –
CCCN(CCC)C1CCc2cccc(C(=O)[CH-][N+]#N)c2C1 (configuration not stated) | 7.70 | 7.62
CCCN(CCC)C1CCc2cccc(OC(=O)[CH-][N+]#N)c2C1 (configuration not stated) | 6.97 | 6.81
